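Test compounds were applied to cells in 96-well plates for 48 hours at 5 doses. GI50: concentration for 50% inhibition of growth.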 Activity calls are given as the source filed them. Cut-off read from the data, not from the text of the source: active = GI50 up to about 1.1 µM and inactive = higher.
What was measured:
Test in all cases: NCI anticancer screen, dose series, 48 h
786-0 = tested on: 786-0
A498 = tested on: A498
A549 = tested on: A549
CAKI-1 = tested on: CAKI-1
CCRF-CEM = tested on: CCRF-CEM
COLO 205 = tested on: COLO 205
DLD-1 = tested on: DLD-1
DMS-114 = tested on: DMS-114
DMS-273 = tested on: DMS-273
EKVX = tested on: EKVX
HCC 2998 = tested on: HCC 2998
HCT-116 = tested on: HCT-116
HCT-15 = tested on: HCT-15
HL-60 = tested on: HL-60
HOP-18 = tested on: HOP-18
HOP-62 = tested on: HOP-62
HOP-92 = tested on: HOP-92
HT-29 = tested on: HT-29
IGROV-1 = tested on: IGROV-1
K562 = tested on: K562
KM-20L2 = tested on: KM-20L2
LOX IMVI = tested on: LOX IMVI
LXFL 529 = tested on: LXFL 529
M14 = tested on: M14
M19-MEL = tested on: M19-MEL
MOLT-4 = tested on: MOLT-4
Malme-3M = tested on: Malme-3M
NCI-H226 = tested on: NCI-H226
NCI-H23 = tested on: NCI-H23
NCI-H460 = tested on: NCI-H460
NCI-H522 = tested on: NCI-H522
OVCAR-3 = tested on: OVCAR-3
OVCAR-4 = tested on: OVCAR-4
OVCAR-5 = tested on: OVCAR-5
OVCAR-8 = tested on: OVCAR-8
RPMI-8226 = tested on: RPMI-8226
RXF 393 = tested on: RXF 393
RXF 631 = tested on: RXF 631
SF-268 = tested on: SF-268
SF-295 = tested on: SF-295
SF-539 = tested on: SF-539
SK-MEL-5 = tested on: SK-MEL-5
SK-OV-3 = tested on: SK-OV-3
SN12C = tested on: SN12C
SNB-19 = tested on: SNB-19
SNB-75 = tested on: SNB-75
SNB-78 = tested on: SNB-78
SR = tested on: SR
SW-620 = tested on: SW-620
TK-10 = tested on: TK-10
U-251 = tested on: U-251
UACC-257 = tested on: UACC-257
UACC-62 = tested on: UACC-62
UO-31 = tested on: UO-31
XF498 = tested on: XF498
ACHN = tested on: ACHN
KM12 = tested on: KM12
SK-MEL-28 = tested on: SK-MEL-28
SK-MEL-2 = tested on: SK-MEL-2

`COc1cc2c([C@@H](OC(=O)c3ccccc3)c3ccc4c(c3)OCO4)nccc2c(OC)c1OC` was tested, and the GI50 (786-0) was > 100 µM (inactive), the GI50 (A498) was 32.2 µM (inactive) and the GI50 (A549) was 17.3 µM (inactive). The GI50 (CAKI-1) was 9.31 µM (inactive), the GI50 (CCRF-CEM) was 28.6 µM (inactive) and the GI50 (COLO 205) was 78.7 µM (inactive). For the same molecule, the GI50 (DLD-1) was 53.3 µM (inactive), the GI50 (DMS-114) was 16.4 µM (inactive) and the GI50 (DMS-273) was 32.4 µM (inactive). For the same molecule, the GI50 (EKVX) was 43.6 µM (inactive), the GI50 (HCC 2998) was 92 µM (inactive) and the GI50 (HCT-116) was 26.9 µM (inactive). For the same molecule, the GI50 (HCT-15) was 37.6 µM, the GI50 (HL-60) was 16.4 µM (inactive) and the GI50 (HOP-18) was > 100 µM (inactive). The GI50 (HOP-62) was > 100 µM (inactive), the GI50 (HOP-92) was 65.5 µM (inactive) and the GI50 (HT-29) was 67.3 µM (inactive). The GI50 (IGROV-1) was > 100 µM (inactive), the GI50 (K562) was 24.9 µM (inactive) and the GI50 (KM-20L2) was 42.1 µM (inactive). For the same molecule, the GI50 (LOX IMVI) was 29.2 µM (inactive), the GI50 (LXFL 529) was 16.7 µM (inactive) and the GI50 (M14) was 53.6 µM (inactive). The GI50 (M19-MEL) was 42.2 µM (inactive), the GI50 (MOLT-4) was 13.5 µM (inactive) and the GI50 (Malme-3M) was 64.6 µM (inactive). The GI50 (NCI-H226) was 23.5 µM (inactive), the GI50 (NCI-H23) was 23.7 µM (inactive) and the GI50 (NCI-H460) was 54 µM (inactive). The GI50 (NCI-H522) was 19.4 µM (inactive), the GI50 (OVCAR-3) was 25.6 µM (inactive) and the GI50 (OVCAR-4) was 18.7 µM (inactive). The GI50 (OVCAR-5) was 76.9 µM (inactive), the GI50 (OVCAR-8) was 49.5 µM (inactive) and the GI50 (RPMI-8226) was 9.71 µM (inactive). The GI50 (RXF 393) was 20.2 µM (inactive), the GI50 (RXF 631) was 20.5 µM (inactive) and the GI50 (SF-268) was 48.8 µM (inactive). The GI50 (SF-295) was 44.3 µM (inactive), the GI50 (SF-539) was 82.2 µM (inactive) and the GI50 (SK-MEL-5) was 17.9 µM (inactive). The GI50 (SK-OV-3) was > 100 µM (inactive), the GI50 (SN12C) was 38.5 µM (inactive) and the GI50 (SNB-19) was 93.8 µM (inactive). The GI50 (SNB-75) was 11.8 µM (inactive), the GI50 (SNB-78) was 85.7 µM (inactive) and the GI50 (SR) was 17.8 µM (inactive). For the same molecule, the GI50 (SW-620) was > 100 µM (inactive), the GI50 (TK-10) was 75.9 µM (inactive) and the GI50 (U-251) was 61.7 µM (inactive). For the same molecule, the GI50 (UACC-257) was 38.4 µM (inactive), the GI50 (UACC-62) was 14.7 µM (inactive) and the GI50 (UO-31) was 2.7 µM (inactive). The GI50 (XF498) was 13.6 µM (inactive).
In the case of `O=C(O)/C(Cl)=C(Cl)/C=N/NC(=O)c1cc2ccccc2cc1O`, the GI50 (786-0) is reported as 19.1 µM (inactive), the GI50 (A498) is reported as 24.6 µM (inactive) and the GI50 (A549) is reported as 9.18 µM (inactive). For the same molecule, the GI50 (ACHN) was 18 µM (inactive), the GI50 (CAKI-1) was 21 µM (inactive) and the GI50 (CCRF-CEM) was 4.86 µM (inactive). The GI50 (COLO 205) was 32.5 µM (inactive), the GI50 (DLD-1) was 7.69 µM (inactive) and the GI50 (DMS-114) was 17.3 µM (inactive). The GI50 (DMS-273) was 6.84 µM (inactive), the GI50 (EKVX) was 30.2 µM (inactive) and the GI50 (HCT-116) was 13.9 µM (inactive). For the same molecule, the GI50 (HCT-15) was 19.4 µM, the GI50 (HL-60) was 5.42 µM (inactive) and the GI50 (HOP-18) was 13.5 µM (inactive). For the same molecule, the GI50 (HOP-62) was 36.6 µM (inactive), the GI50 (HOP-92) was 30.3 µM (inactive) and the GI50 (HT-29) was 38.6 µM (inactive). The GI50 (IGROV-1) was 15.5 µM (inactive), the GI50 (K562) was 6.11 µM (inactive) and the GI50 (KM-20L2) was 28.8 µM (inactive). The GI50 (KM12) was 36.8 µM (inactive), the GI50 (LXFL 529) was 21.6 µM (inactive) and the GI50 (M14) was 14.5 µM (inactive). The GI50 (M19-MEL) was 17.9 µM (inactive), the GI50 (MOLT-4) was 5.89 µM (inactive) and the GI50 (Malme-3M) was 37.2 µM (inactive). For the same molecule, the GI50 (NCI-H226) was 18.6 µM (inactive), the GI50 (NCI-H23) was 8.57 µM (inactive) and the GI50 (NCI-H460) was 21 µM (inactive). For the same molecule, the GI50 (NCI-H522) was 22.1 µM (inactive), the GI50 (OVCAR-3) was 6.11 µM (inactive) and the GI50 (OVCAR-4) was 5.66 µM (inactive). For the same molecule, the GI50 (OVCAR-5) was 19.3 µM (inactive), the GI50 (OVCAR-8) was 19.7 µM (inactive) and the GI50 (RPMI-8226) was 6.71 µM (inactive). For the same molecule, the GI50 (RXF 631) was 26.4 µM (inactive), the GI50 (SF-268) was 7.66 µM (inactive) and the GI50 (SF-295) was 11.9 µM (inactive). For the same molecule, the GI50 (SF-539) was 29.6 µM (inactive), the GI50 (SK-MEL-28) was 29.8 µM (inactive) and the GI50 (SK-MEL-2) was 16 µM (inactive). For the same molecule, the GI50 (SK-MEL-5) was 9.82 µM (inactive), the GI50 (SK-OV-3) was 49.2 µM (inactive) and the GI50 (SN12C) was 38.5 µM (inactive). The GI50 (SNB-19) was 35.2 µM (inactive), the GI50 (SNB-75) was 3.38 µM (inactive) and the GI50 (SNB-78) was 33.7 µM (inactive). The GI50 (SR) was 9.55 µM (inactive), the GI50 (SW-620) was 17.3 µM (inactive) and the GI50 (TK-10) was 35.5 µM (inactive). The GI50 (U-251) was 27.5 µM (inactive), the GI50 (UACC-257) was 15.5 µM (inactive) and the GI50 (UACC-62) was 3.6 µM (inactive). For the same molecule, the GI50 (UO-31) was 2.48 µM (inactive) and the GI50 (XF498) was 35.4 µM (inactive).
For `COc1c(O)ccc(/C=N/NC(=S)NCOCCOC(C)=O)c1OC`, the GI50 (786-0) was > 100 µM (inactive), the GI50 (A498) was > 100 µM (inactive) and the GI50 (A549) was > 100 µM (inactive). The GI50 (ACHN) was > 100 µM (inactive), the GI50 (CCRF-CEM) was > 100 µM (inactive) and the GI50 (COLO 205) was > 100 µM (inactive). For the same molecule, the GI50 (DLD-1) was > 100 µM (inactive), the GI50 (DMS-114) was > 100 µM (inactive) and the GI50 (DMS-273) was > 100 µM (inactive). The GI50 (EKVX) was > 100 µM (inactive), the GI50 (HCC 2998) was > 100 µM (inactive) and the GI50 (HCT-116) was > 100 µM (inactive). For the same molecule, the GI50 (HCT-15) was > 100 µM, the GI50 (HL-60) was > 100 µM (inactive) and the GI50 (HOP-18) was > 100 µM (inactive). For the same molecule, the GI50 (HOP-62) was > 100 µM (inactive), the GI50 (HOP-92) was > 100 µM (inactive) and the GI50 (HT-29) was > 100 µM (inactive). The GI50 (IGROV-1) was > 100 µM (inactive), the GI50 (K562) was > 100 µM (inactive) and the GI50 (KM-20L2) was > 100 µM (inactive). The GI50 (KM12) was > 100 µM (inactive), the GI50 (LOX IMVI) was > 100 µM (inactive) and the GI50 (LXFL 529) was > 100 µM (inactive). For the same molecule, the GI50 (M14) was > 100 µM (inactive), the GI50 (M19-MEL) was > 100 µM (inactive) and the GI50 (Malme-3M) was > 100 µM (inactive). The GI50 (NCI-H226) was > 100 µM (inactive), the GI50 (NCI-H23) was > 100 µM (inactive) and the GI50 (NCI-H460) was > 100 µM (inactive). For the same molecule, the GI50 (NCI-H522) was > 100 µM (inactive), the GI50 (OVCAR-3) was > 100 µM (inactive) and the GI50 (OVCAR-4) was > 100 µM (inactive). The GI50 (OVCAR-5) was > 100 µM (inactive), the GI50 (OVCAR-8) was > 100 µM (inactive) and the GI50 (RXF 393) was > 100 µM (inactive). For the same molecule, the GI50 (RXF 631) was > 100 µM (inactive), the GI50 (SF-268) was > 100 µM (inactive) and the GI50 (SF-295) was > 100 µM (inactive). The GI50 (SF-539) was > 100 µM (inactive), the GI50 (SK-MEL-28) was > 100 µM (inactive) and the GI50 (SK-MEL-2) was > 100 µM (inactive). For the same molecule, the GI50 (SK-MEL-5) was > 100 µM (inactive), the GI50 (SK-OV-3) was > 100 µM (inactive) and the GI50 (SN12C) was > 100 µM (inactive). For the same molecule, the GI50 (SNB-19) was > 100 µM (inactive), the GI50 (SNB-75) was > 100 µM (inactive) and the GI50 (SNB-78) was > 100 µM (inactive). For the same molecule, the GI50 (SW-620) was > 100 µM (inactive), the GI50 (TK-10) was > 100 µM (inactive) and the GI50 (U-251) was > 100 µM (inactive). The GI50 (UACC-257) was > 100 µM (inactive), the GI50 (UACC-62) was > 100 µM (inactive) and the GI50 (UO-31) was > 100 µM (inactive). The GI50 (XF498) was > 100 µM (inactive).
